# Test system: bovine tubulin
# Test: In vitro tubulin polymerization assay (turbidity at 340 nm)
# Format: biochemical
# Conditions: 10 μM compound, 30 minute data point, vs 1% DMSO control
# Method: Briefly, tubulin polymerization is a kinetic process that is temperature-dependent and requires GTP and was performed as follows. Soluble tubulin dimers polymerize into microtubules upon warming, and polymerization in vitro correlates with an increase in turbidity (measured at 340 nm). Lyophilized bovine tubulin (HTS Tubulin—97% tubulin, <3% MAPs—Cytoskeleton Inc.) was ressuspended in G-PEM buffer (80 mM PIPES pH 7, 1 mM EGTA, 1 mM MgCl2, 1 mM GTP, 5% glycerol) to a final concentration of 3 mg/ml and kept at 4° C. Compounds in 100× stock solutions in DMSO were dotted to pre-warmed 96-well plates (Corning Costar 3696), the plates were transferred to a 37° C. plate reader (SPECTRAmax Plus, Molecular Devices), cold tubulin was added to the wells, and the plates were shaken for mixing. The absorbance at 340 nm was determined at one minute intervals for 30 minutes. Kinetic curves with 30 points each were collected for each compound, and the dynamic range was between 0 and 0.4 OD units. The percentage inhibition values were calculated using the 30 minute data point and based on control samples (treated with 1% DMSO only). The assay is a modified version of the HTS kit sold by Cytoskeleton (1830 S. Acoma St., Denver, Colo.), adapted to maximize throughput and reduce time, without reduction in dynamic range or sensitivity, while retaining the ability to detect compounds that inhibit or enhance tubulin polymerization.
# Tubulin polymerization is a kinetic process that is temperature-dependent and requires GTP. Soluble tubulin dimers polymerize into microtubules upon warming, and polymerization in vitro correlates with an increase in turbidity (measured at 340 nm). Liophilized bovine tubulin (HTS Tubulin—97% tubulin, <3% MAPs—Cytoskeleton Inc.) was ressuspended in G-PEM buffer (80 mM PIPES pH 7, 1 mM EGTA, 1 mM MgCl2, 1 mM GTP, 5% glycerol) to a final concentration of 3 mg/ml and kept at 4° C. Compounds in 100× stock solutions in DMSO were dotted to pre-warmed 96-well plates (Corning Costar 3696), the plates were immediately transferred to a 37° C. plate reader (SPECTRAmax Plus, Molecular Devices), cold tubulin was added to the wells, plates were shaken for mixing, and absorbance at 340 nm was read every minute for 30 minutes. Kinetic curves with 30 points each were collected for each compound, and the dynamic range was between 0 and 0.4 OD units. Percentage inhibition values were calculated using the 30 minute data point, based on control samples (treated with 1% DMSO only). This assay is a modified version of the HTS kit sold by Cytoskeleton, adapted to maximize throughput and reduce time, without reduction in dynamic range or sensitivity, while retaining the ability to detect compounds that inhibit or enhance tubulin polymerization.
row,SMILES,Tubulin Assay: percent inhibition at 10 μM based on 30 minute data [%]
1,"FC(F)(F)c1cccc(-c2nnc(-c3cccnc3NCc3ccco3)[nH]2)c1 [Compound 96, Furan-2-ylmethyl-{3-[5-(3-trifluoromethyl-phenyl)-4H-[1,2,4]triazol-3-yl]-pyridin-2-yl}-amine]",20
2,"CS(=O)(=O)c1ccc(-c2nnc(-c3cccnc3NCCc3cccnc3)[nH]2)cc1 [Compound 99, {3-[5-(4-Methanesulfonyl-phenyl)-4H-[1,2,4]triazol-3-yl]-pyridin-2-yl}-(2-pyridin-3-yl-ethyl)-amine]",47
3,"c1cnc(NCc2ccc3c(c2)OCCO3)c(-c2nnc(-c3ccc4c(c3)OCO4)[nH]2)c1 [Compound 104, [3-(5-Benzo[1,3]dioxol-5-yl-4H-[1,2,4]triazol-3-yl)-pyridin-2-yl]-(2,3-dihydro-benzo[1,4]dioxin-6-ylmethyl)-amine]",21
4,"CS(=O)(=O)c1ccc(-c2nnc(-c3cccnc3NCc3cccc(F)c3)[nH]2)cc1 [Compound 107, (3-Fluoro-benzyl)-{3-[5-(4-methanesulfonyl-phenyl)-4H-[1,2,4]triazol-3-yl]-pyridin-2-yl}-amine]",37
5,"COc1cccc(-c2nnc(-c3cccnc3OCc3ccc4c(c3)OCO4)[nH]2)c1 [Compound 110, 2-(Benzo[1,3]dioxol-5-ylmethoxy)-3-[5-(3-methoxy-phenyl)-4H-[1,2,4]triazol-3-yl]-pyridine]",20
6,"COc1cccc(CNc2nnc(-c3ccccc3NCc3ccncc3)[nH]2)c1 [Compound 112, (3-Methoxy-benzyl)-(5-{2-[(pyridin-4-ylmethyl)-amino]-phenyl}-4H-[1,2,4]triazol-3-yl)-amine]",49
7,"COc1ccc(CNc2nnc(-c3ccccc3NCc3ccncc3)[nH]2)cc1 [Compound 113, (4-Methoxy-benzyl)-(5-{2-[(pyridin-4-ylmethyl)-amino]-phenyl}-4H-[1,2,4]triazol-3-yl)-amine]",24
8,"COc1ccc(Nc2nnc(-c3ccccc3NCc3ccncc3)[nH]2)c(OC)c1 [Compound 114, (2,4-Dimethoxy-phenyl)-(5-{2-[(pyridin-4-ylmethyl)-amino]-phenyl}-4H-[1,2,4]triazol-3-yl)-amine]",24
9,"COc1ccc(Nc2nnc(-c3ccccc3NCc3ccncc3)[nH]2)cc1 [Compound 116, (4-Methoxy-phenyl)-(5-{2-[(pyridin-4-ylmethyl)-amino]-phenyl}-4H-[1,2,4]triazol-3-yl)-amine]",20
10,"c1ccc(-c2nnc(Nc3ccc4c(c3)OCO4)[nH]2)c(NCc2ccc3[nH]cnc3c2)c1 [Compound 118, Benzo[1,3]dioxol-5-yl-(5-{2-[(1H-benzoimidazol-5-ylmethyl)-amino]-phenyl}-4H-[1,2,4]triazol-3-yl)-amine]",41
11,"COc1cc(Nc2nnc(-c3ccccc3NCc3ccc(F)c(F)c3)[nH]2)cc(OC)c1 [Compound 120, {5-[2-(3,4-Difluoro-benzylamino)-phenyl]-4H-[1,2,4]triazol-3-yl}-(3,5-dimethoxy-phenyl)-amine]",63
12,"CN(C)c1ccc(Nc2nnc(-c3ccccc3NCc3ccc(F)c(F)c3)[nH]2)cc1 [Compound 121, {5-[2-(3,4-Difluoro-benzylamino)-phenyl]-4H-[1,2,4]triazol-3-yl}-(4-dimethylamino-phenyl)-amine]",23
13,O=[N+]([O-])c1cc(C(F)(F)F)ccc1-c1nnc(Nc2ccc3c(c2)OCO3)[nH]1 [Compound 124b],26
14,"Nc1cc(C(F)(F)F)ccc1-c1nnc(Nc2ccc3c(c2)OCO3)[nH]1 [Compound 124c, [5-(2-Amino-4-trifluoromethyl-phenyl)-4H-[1,2,4]triazol-3-yl]-benzo[1,3]dioxol-5-yl-amine]",61
15,"FC(F)(F)c1ccc(-c2nnc(Nc3ccc4c(c3)OCO4)[nH]2)c(NCc2cccnc2)c1 [Compound 125, Benzo[1,3]dioxol-5-yl-(5-{2-[(pyridin-3-ylmethyl)-amino]-4-trifluoromethyl-phenyl}-4H-[1,2,4]triazol-3-yl)-amine]",96
16,"COc1cc(CNc2cc(C(F)(F)F)ccc2-c2nnc(Nc3ccc4c(c3)OCO4)[nH]2)cc(OC)c1 [Compound 126, Benzo[1,3]dioxol-5-yl-{5-[2-(3,5-dimethoxy-benzylamino)-4-trifluoromethyl-phenyl]-4H-[1,2,4]triazol-3-yl}-amine]",93
17,"O=[N+]([O-])c1ccccc1-c1nnc(Nc2ccc3c(c2)OCCO3)[nH]1 [Compound 127a, (2,3-Dihydro-benzo[1,4]dioxin-6-yl)-[5-(2-nitro-phenyl)-4H-[1,2,4]triazol-3-yl]-amine]",22
18,"Nc1ccccc1-c1nnc(Nc2ccc3c(c2)OCCO3)[nH]1 [Compound 127b, [5-(2-amino-phenyl)-4H-[1,2,4]triazol-3-yl]-(2,3-dihydro-benzo[1,4]dioxin-6-yl)-amine]",20
19,"N#Cc1ccc(S(=O)(=O)Nc2ccccc2-c2nnc(Nc3ccc4c(c3)OCCO4)[nH]2)cc1 [Compound 128, 4-Cyano-N-{2-[5-(2,3-dihydro-benzo[1,4]dioxin-6-ylamino)-4H-[1,2,4]triazol-3-yl]-phenyl}-benzenesulfonamide]",42
20,"CS(=O)(=O)c1ccc(-c2nnc(-c3ccccc3NCC3CCOC3)[nH]2)cc1 (stereo not shown) [Compound 134, {2-[5-(4-Methanesulfonyl-phenyl)-4H-[1,2,4]triazol-3-yl]-phenyl}-(tetrahydro-furan-3-ylmethyl)-amine]",34
21,"COc1cc(CNc2ccccc2-c2nnc(-c3cccc(OC)c3)[nH]2)cc(OC)c1 [Compound 135, (3,5-Dimethoxy-benzyl)-{2-[5-(3-methoxy-phenyl)-4H-[1,2,4]triazol-3-yl]-phenyl}-amine]",23
22,"COc1cccc(-c2nnc(-c3ccccc3NCc3ccc4[nH]cnc4c3)[nH]2)c1 [Compound 137, (1H-Benzoimidazol-5-ylmethyl)-{2-[5-(3-methoxy-phenyl)-4H-[1,2,4]triazol-3-yl]-phenyl}-amine]",28
23,"FC(F)(F)c1ccc(-c2nnc(-c3ccccc3NCc3ccc4c(c3)OCO4)[nH]2)cc1 [Compound 138, Benzo[1,3]dioxol-5-ylmethyl-{2-[5-(4-trifluoromethyl-phenyl)-4H-[1,2,4]triazol-3-yl]-phenyl}-amine]",28
24,"FC(F)(F)c1ccc(-c2nnc(-c3ccccc3NCc3ccc4c(c3)OCCO4)[nH]2)cc1 [Compound 139, (2,3-Dihydro-benzo[1,4]dioxin-6-ylmethyl)-{2-[5-(4-trifluoromethyl-phenyl)-4H-[1,2,4]triazol-3-yl]-phenyl}-amine]",21
25,"COc1cc(CNc2ccccc2-c2nnc(-c3ccc(C(F)(F)F)cc3)[nH]2)cc(OC)c1 [Compound 140, (3,5-Dimethoxy-benzyl)-{2-[5-(4-trifluoromethyl-phenyl)-4H-[1,2,4]triazol-3-yl]-phenyl}-amine]",20
26,"FC(F)(F)Oc1cccc(-c2nnc(-c3ccccc3NCc3ccc4c(c3)OCCO4)[nH]2)c1 [Compound 142, (2,3-Dihydro-benzo[1,4]dioxin-6-ylmethyl)-{2-[5-(3-trifluoromethoxy-phenyl)-4H-[1,2,4]triazol-3-yl]-phenyl}-amine]",20
27,"COc1cc(CNc2ccccc2-c2nnc(-c3cccc(OC(F)(F)F)c3)[nH]2)cc(OC)c1 [Compound 143, (3,5-Dimethoxy-benzyl)-{2-[5-(3-trifluoromethoxy-phenyl)-4H-[1,2,4]triazol-3-yl]-phenyl}-amine]",46
28,"FC(F)(F)Oc1cccc(-c2nnc(-c3ccccc3NCc3ccc4[nH]cnc4c3)[nH]2)c1 [Compound 144, (1H-Benzoimidazol-5-ylmethyl)-{2-[5-(3-trifluoromethoxy-phenyl)-4H-[1,2,4]triazol-3-yl]-phenyl}-amine]",86

# Reference: patent publication US20090048301A1 (IMCLONE SYSTEMS INCORPORATED, priority 2003, published 2009)
